Here are results for 2 compounds from patent US20120252827A1, “COMBINATION OF THERAPY COMPRISING ZD6474 AND A TAXANE” (priority 2001, published 2012).

This test concerns GEO human colon cancer xenografts. Kind of test: GEO human colon cancer xenograft model: ZD6474 dosed intraperitoneally. Format: in vivo, BALB/c athymic (nu+/nu+) mice. Conditions: GEO xenografts s.c. in mice; for Average time (days) from day 28 to reach an average tumour volume of 2 cm^3 (approximately 10% of mouse body weight): paclitaxel 400 μg/mouse i.p., ZD6474 100 mg/kg/day i.p.; for Average tumour volume on day 28 after tumour cell injection: treatment from day 7, paclitaxel 400 μg/mouse i.p. days 7, 14, 21, 28, ZD6474 100 mg/kg/day i.p. days 7-11, 14-18, 21-25, 28-32. The protocol: a) Geo Human Colon Cancer Xenograft Model: ZD6474 Dosed Intraperitoneally
Female BALB/c athymic (nu+/nu+) mice 4-6 weeks of age were injected subcutaneously (s.c.) with GEO human colon cancer cells (10^7 cells resuspended in 200 μl Matrigel) on day 0. Treatment was initiated on day 7 after s.c. implantation of GEO cells when the average tumour volume was 0.25 (+0.05) cm^3. 10 mice per group were treated either with intraperitoneal (i.p.) paclitaxel (400 μg/mouse) on days 7, 14, 21 and 28, or with ZD6474 (100 mg/kg/day i.p. suspended in a 1% (v/v) solution of polyoxyethylene (20) sorbitan mono-oleate in deionised water) on days 7-11, 14-18, 21-25 and 28-32, or with a combination of both agents. In the case of combination treatments, where mice received both agents on the same day, paclitaxel was given 10-15 minutes before ZD6474. Tumour size was measured using the formula π/6×larger diameter×(smaller diameter)^2.
The average tumour volume on day 28 following tumour cell injection in control mice, 1.95 (+0.15) cm^3, was approximately 10% of nude mouse body weight and mice in this group were sacrificed at this time. […] Statistical evaluations of time to reach a tumour volume of 2 cm^3 has been done using the Mantel-Cox logrank test with the following results: ZD6474 (100 mg/kg) versus control (p=0.001); paclitaxel+ZD6474 (100 mg/kg) versus control (p=0.0001); paclitaxel+ZD6474 (100 mg/kg) versus paclitaxel (p=0.001); paclitaxel+ZD6474 (100 mg/kg) versus ZD6474 (100 mg/kg) (p=0.01).
Background: A xenograft is tissue or cells of one species grown in another, often human tumour cells in immunodeficient mice.

For `CC(=O)O[C@H]1C(=O)[C@@]2(C)[C@H]([C@H](OC(=O)c3ccccc3)[C@]3(O)C[C@H](OC(=O)[C@H](O)[C@@H](NC(=O)c4ccccc4)c4ccccc4)C(C)=C1C3(C)C)[C@]1(OC(C)=O)CO[C@@H]1C[C@@H]2O` [Paclitaxel, paclitaxel], the “Average time (days) from day 28 to reach an average tumour volume of 2 cm^3 (approximately 10% of mouse body weight)” value is 14 (±3) days and the “Average tumour volume on day 28 after tumour cell injection” value is 0.95 (±0.1) cm^3.

Regarding `COc1cc2c(Nc3ccc(Br)cc3F)ncnc2cc1OCC1CCN(C)CC1` [ZD6474, 4-(4-bromo-2-fluoroanilino)-6-methoxy-7-(1-methylpiperidin-4-ylmethoxy)quinazoline], the “Average time (days) from day 28 to reach an average tumour volume of 2 cm^3 (approximately 10% of mouse body weight)” value is 29 (±2) days and the “Average tumour volume on day 28 after tumour cell injection” value is on record as 0.1 (±0.05) cm^3.
